Measurements published in ChEMBL document CHEMBL1275504, “Detection of macrolide resistance in Mycoplasma pneumoniae by real-time PCR and high-resolution melt analysis” (2008).
In brackets after ≈: the same amount, converted by molar mass.

Tests used:
Assay type in all cases: functional
[1] = test system: Mycoplasmoides pneumoniae; experiment: Antimicrobial activity against macrolide-resistant Mycoplasma pneumoniae isolate 685 with A2603G mutation by agar dilution method
[2] = test system: Mycoplasmoides pneumoniae; experiment: Antimicrobial activity against Mycoplasma pneumoniae isolate 18 by agar dilution method
[3] = test system: Mycoplasmoides pneumoniae; experiment: Antimicrobial activity against Mycoplasma pneumoniae isolate FH by agar dilution method
[4] = test system: Mycoplasmoides pneumoniae; experiment: Antimicrobial activity against macrolide-resistant Mycoplasma pneumoniae isolate 6 with A2604G mutation by agar dilution method
[5] = test system: Mycoplasmoides pneumoniae; experiment: Antimicrobial activity against Mycoplasma pneumoniae isolate M129 by agar dilution method
[6] = test system: Mycoplasmoides pneumoniae; experiment: Antimicrobial activity against Mycoplasma pneumoniae isolate 19 by agar dilution method
[7] = test system: Mycoplasmoides pneumoniae; experiment: Antimicrobial activity against macrolide-resistant Mycoplasma pneumoniae isolate 11 with A2604G mutation by agar dilution method
[8] = test system: Mycoplasmoides pneumoniae; experiment: Antimicrobial activity against macrolide-resistant Mycoplasma pneumoniae isolate 1006 with A2603G mutation by agar dilution method
[9] = test system: Mycoplasmoides pneumoniae; experiment: Antimicrobial activity against macrolide-resistant Mycoplasma pneumoniae isolate 2p with A2604G mutation by agar dilution method

SMILES | MIC [1] [µg/mL] | MIC [2] [µg/mL] | MIC [3] [µg/mL] | MIC [4] [µg/mL] | MIC [5] [µg/mL] | MIC [6] [µg/mL] | MIC [7] [µg/mL] | MIC [8] [µg/mL] | MIC [9] [µg/mL]
CC[C@H]1OC(=O)[C@H](C)[C@@H](O[C@H]2C[C@@](C)(OC)[C@@H](O)[C@H](C)O2)[C@H](C)[C@@H](O[C@@H]2O[C@H](C)C[C@H](N(C)C)[C@H]2O)[C@](C)(O)C[C@@H](C)C(=O)[C@H](C)[C@@H](O)[C@]1(C)O [ERYTHROMYCIN] | 128 (≈ 174 µM) | 0.063 (≈ 0.0858 µM) | 0.063 (≈ 0.0858 µM) | 128 (≈ 174 µM) | 0.063 (≈ 0.0858 µM) | 0.063 (≈ 0.0858 µM) | 128 (≈ 174 µM) | 128 (≈ 174 µM) | 128 (≈ 174 µM)
CN(C)c1ccc(O)c2c1C[C@H]1C[C@H]3[C@H](N(C)C)C(O)=C(C(N)=O)C(=O)[C@@]3(O)C(O)=C1C2=O [MINOCYCLINE] | 0.125 (≈ 0.273 µM) | 0.125 (≈ 0.273 µM) | 0.25 (≈ 0.546 µM) | 0.125 (≈ 0.273 µM) | 0.25 (≈ 0.546 µM) | 0.125 (≈ 0.273 µM) | 0.125 (≈ 0.273 µM) | 0.125 (≈ 0.273 µM) | 0.25 (≈ 0.546 µM)
CN(C)[C@@H]1C(O)=C(C(N)=O)C(=O)[C@@]2(O)C(O)=C3C(=O)c4c(O)cccc4[C@@](C)(O)[C@H]3C[C@@H]12 [TETRACYCLINE] | 0.25 (≈ 0.563 µM) | 0.125 (≈ 0.281 µM) | 0.25 (≈ 0.563 µM) | 0.25 (≈ 0.563 µM) | 0.25 (≈ 0.563 µM) | 0.25 (≈ 0.563 µM) | 0.25 (≈ 0.563 µM) | 0.125 (≈ 0.281 µM) | 0.25 (≈ 0.563 µM)
